The record followed here is patent publication US6623728B2, “Cosmetic skin care compositions and containing gum mastic” (Unilever Home & Personal Care USA Division of Conopco, Inc., priority 2000, dated 2003).

One experiment concerns human sebocytes. Put plainly: Inhibition of sebocyte lipogenesis (14C-acetate incorporation). Type of experiment: cell-based. Particulars: 0.00035%; 14C-acetate label in sebocytes, 20 h + 4 h incubation. How it is done:
Secondary cultures of human sebocytes obtained from an adult […] were grown in 48-well tissue culture plates (Costar Corp.; Cambridge, Mass.) until confluent. Sebocyte growth medium consisted of Clonetics Keratinocyte Basal Medium (KBM) supplemented with 14 μg/ml bovine pituitary extract, 0.4 μg/ml hydrocortisone, 5 μg/ml insulin, 10 ng/ml epidermal growth factor, 1.2×10^−10 M cholera toxin, 100 units/ml penicillin, and 100 μg/ml streptomycin. All cultures were incubated at 37° C. in the presence of 7.5% CO2. Medium was changed three times per week.
On the day of experimentation, the growth medium was removed and the sebocytes washed three times with sterile Dulbecco's Modified Eagle Medium (DMEM; phenol red free). Fresh DMEM was added to each sample (triplicates) with 5 μL of gum mastic solubilized in ethanol. Controls consisted of addition of ethanol alone to phenol red. Each plate was returned to the incubator for 20 hours followed by the addition of ^14C-acetate buffer (5 mM final concentration, 56 mCi/mmol specific activity). […] Radioactive label remaining in the sebocytes was harvested and counted using a Beckman scintillation counter. […]
Controls consisted of ethanol alone and phenol red, which has estrogen-like activity. Statistical significance was calculated using the student's T-test.

The test system of experiment [1] is glycosaminoglycan synthesis. Put plainly: Glycosaminoglycan synthesis. Type of experiment: cell-based. Particulars: positive control, concentration not given.
A further experiment concerns procollagen I. Put plainly: Procollagen I production by fibroblasts (slot blot). In kind it is cell-based, human. Particulars: positive control, head says (0.01%). How it is done: This example measured production of procollagen I by fibroblasts in response to treatment with gum mastic in solvent solutions, as well as control solutions.
Gum mastic solubilized in ethanol solvent (“gum mastic”), and obtained from Sigma were tested.
Neonatal human dermal fibroblasts were purchased from Clonetics Corp., San Diego, Calif. All materials for cell culture were purchased from Life Technologies, NY and used in passages 5-10. Cells were seeded at a density of approximately 7,500/well in the inner 48 wells of a 96-well plate in a medium containing DMEM (Dulbecco's Modified Eagle's Medium), high-glucose supplemented with 2 mM L-glutamine, 10% fetal bovine serum, and antibiotic and antimycotic solutions). Cells were then grown to confluence for 2 days. At confluence, the medium was removed and cells were washed with serum-free DMEM, and each well dosed with 200 μl of a solution of gum mastic in serum-free DMEM. Each dosing was replicated in the total of six wells. […]
The membrane was stained until color developed and the reaction stopped with 2 washes for 10 minutes in tap water. […] Blot was scanned on Bio-Rad GS-700 Image Analysis densitometer and volume (OD*mm^2) of color/slot determined using molecular analysis software. Fold increase was calculated as a ratio of densitometer reading for cells treated with a gum mastic concentration over control.

Regarding `O=S1(=O)OC(c2ccc(O)cc2)(c2ccc(O)cc2)c2ccccc21` [Phenol Red], the “% Reduction” value in the experiment on human sebocytes is 29.1%.

As to TGF-b, the “Fold increase over control” value (in experiment [1]; in the experiment on procollagen I) was 1.4 fold throughout. Moreover, the “Average OD Reading” value amounted to 6382.3 in experiment [1] (control 4531.8) and 7499.8 with procollagen I (densitometer volume OD*mm^2, control 5400.5).
